What was measured:
[1] = test system: vCap Cell; assay: vCap cell growth inhibition, CellTiter-Glo, 72 h; assay type: cell-based; conditions: vCap cells, 72 h culture
In short: (§1)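 Cells seeded at 5×10^3/well overnight in RPMI-1640/10% FBS, then exposed to compound (0.5% DMSO final) for 72 h at 37 °C.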

[2] = test system: 22Rv1 Cell; assay: 22RV1 cell growth inhibition, CellTiter-Glo, 72 h; assay type: cell-based; conditions: 22RV1 cells, 72 h culture
In short: as §1

SMILES | IC50 ([1]; Homo sapiens, VCaP, 72 h) [nM] | IC50 ([2]; Homo sapiens, 22Rv1, 72 h) [nM] | IC50 [1] [nM] | IC50 [2] [nM]
CCN1CCC(c2cc3c(c(N4CCCc5cc(-c6cnn(C)c6)c(C(F)F)cc54)c2)CN(C(=O)NC)CC3)CC1=O (centres unmarked) [Compound M001186] | < 1000 | < 1000 |  | 
CNC(=O)N1CCc2cc(C3CCN(CCOC)C(=O)C3)cc(N3CCCc4cc(-c5cnn(C)c5)c(C(F)F)cc43)c2C1 (centres unmarked) [Compound M001188] | < 1000 | < 1000 |  | 
CCN1CCC(c2cc3c(c(N4CCCc5cc(-c6cnn(C)c6)c(C(F)F)cc54)c2)CN(C(C)=O)C3)CC1=O (centres unmarked) [Compound M001189] | < 1000 | < 1000 |  | 
CNC(=O)N1Cc2cc([C@H]3CC[C@@H](O)CC3)cc(N3CCCc4cc(-c5cnn(C)c5)c(C(F)F)cc43)c2C1 [Compound M001192] | > 1000 | > 1000 |  | 
CNC(=O)N1Cc2cc([C@H]3CC[C@H](O)CC3)cc(N3CCCc4cc(-c5cnn(C)c5)c(C(F)F)cc43)c2C1 [Compound M001193] | > 1000 | > 1000 |  | 
CC(=O)N1Cc2cc([C@H]3CC[C@H](O)CC3)cc(N3CCCc4cc(-c5cnn(C)c5)c(C(F)F)cc43)c2C1 [Compound M001194] | < 1000 | > 1000 |  | 
CC(=O)N1Cc2cc([C@H]3CC[C@@H](O)CC3)cc(N3CCCc4cc(-c5cnn(C)c5)c(C(F)F)cc43)c2C1 [Compound M001195] | < 1000 | > 1000 |  | 
COC1CCC(c2cc3c(c(N4CCCc5cc(-c6cnn(C)c6)c(C(F)F)cc54)c2)CN(C(C)=O)CC3)CC1 (centres unmarked) [Compound M001196] | > 1000 | > 1000 |  | 
COC1CCC(c2cc3c(c(N4CCCc5cc(-c6cnn(C)c6)c(C(F)F)cc54)c2)CN(C(C)=O)CC3)CC1 (centres unmarked) [Compound M001197] |  |  | > 1000 | > 1000
CNC(=O)N1CCc2cc(C3CCC(OC)CC3)cc(N3CCCc4cc(-c5cnn(C)c5)c(C(F)F)cc43)c2C1 (centres unmarked) [Compound M001198] | > 1000 | > 1000 |  | 
CNC(=O)N1CCc2cc(C3CCC(OC)CC3)cc(N3CCCc4cc(-c5cnn(C)c5)c(C(F)F)cc43)c2C1 (centres unmarked) [Compound M001199] |  |  | > 1000 | > 1000
CNC(=O)N1Cc2cc(C3CCC(OC)CC3)cc(N3CCCc4cc(-c5cnn(C)c5)c(C(F)F)cc43)c2C1 (centres unmarked) [Compound M001200] | > 1000 | > 1000 |  | 
COC(=O)N1CCc2cc(Cl)cc(N3CCCc4cc(-c5cnn(C)c5)c(C(F)F)cc43)c2C1 [Compound M001201] | > 1000 | > 1000 |  | 
COC(=O)N1Cc2cc(C3CCC(OC)CC3)cc(N3CCCc4cc(-c5cnn(C)c5)c(C(F)F)cc43)c2C1 (centres unmarked) [Compound M001203] | > 1000 | > 1000 |  | 
COC(=O)N1Cc2cc(C3CCC(OC)CC3)cc(N3CCCc4cc(-c5cnn(C)c5)c(C(F)F)cc43)c2C1 (centres unmarked) [Compound M001204] |  |  | > 1000 | > 1000
CC(=O)N1CCc2cccc(N3CCCc4cc(-c5cnn(C)c5)c(C(F)F)cc43)c2C1 [Compound M001207] | > 1000 | > 1000 |  | 
CC(=O)N1CCc2cc(Cl)cc(N3CCCc4cc(-c5cnn(C)c5)c(C(F)F)cc43)c2C1 [Compound M001208] | > 1000 | > 1000 |  | 
CNC(=O)N1CCc2cc(Cl)cc(N3CCCc4cc(-c5cnn(C)c5)c(C(F)F)cc43)c2C1 [Compound M001209] | > 1000 | > 1000 |  | 

More lines, now with the values ahead:

IC50 ([1]; Homo sapiens, VCaP, 72 h) [nM] | IC50 ([2]; Homo sapiens, 22Rv1, 72 h) [nM] | IC50 [1] [nM] | IC50 [2] [nM] | SMILES
> 1000 | > 1000 |  |  | COC(=O)N1CCCc2cccc(N3CCCc4cc(-c5cnn(C)c5)c(C(F)F)cc43)c2C1 [Compound M001210]
> 1000 | > 1000 |  |  | CNC(=O)N1CCCc2cccc(N3CCCc4cc(-c5cnn(C)c5)c(C(F)F)cc43)c2C1 [Compound M001211]
> 1000 | > 1000 |  |  | CC(=O)N1CCCc2cccc(N3CCCc4cc(-c5cnn(C)c5)c(C(F)F)cc43)c2C1 [Compound M001212]
> 1000 | > 1000 |  |  | Cn1cc(-c2cc3c(cc2C(F)F)N(c2cccc4c2CN(C(N)=O)CCC4)CCC3)cn1 [Compound M001213]
> 1000 | > 1000 |  |  | Cn1cc(-c2cc3c(cc2C(F)F)N(c2cccc4c2CN(C(=O)C2CC2)CCC4)CCC3)cn1 [Compound M001214]
> 1000 | > 1000 |  |  | Cn1cc(-c2cc3c(cc2C(F)F)N(c2cccc4c2CNC(=O)CC4)CCC3)cn1 [Compound M001215, 9-[7-(difluoromethyl)-6-(1-methylpyrazol-4-yl)-3,4-dihydro-2H-quinolin-1-yl]-1,2,4,5-tetrahydro-2-benzazepin-3-one]
> 1000 | > 1000 |  |  | CC(=O)N1Cc2cc(C3CCNC(=O)C3)cc(N3CCCc4cc(-c5cnn(C)c5)ccc43)c2C1 (centres unmarked) [Compound M001218]
< 1000 | < 1000 |  |  | CC(=O)N1Cc2cc(C3CCNC(=O)C3)cc(N3CCCc4cc(-c5cnn(C)c5)c(C5CC5)cc43)c2C1 (centres unmarked) [Compound M001219, 4-{2-acetyl-7-[7-cyclopropyl-6-(1-methylpyrazol-4-yl)-3,4-dihydro-2H-quinolin-1-yl]-1,3-dihydroisoindol-5-yl}piperidin-2-one]
< 1000 | < 1000 |  |  | CCN1CC(c2cc3c(c(N4CCCc5cc(-c6cnn(C)c6)c(C(F)F)cc54)c2)CN(C(=O)NC)CC3)CCC1=O (centres unmarked) [Compound M001221]
< 1000 | < 1000 |  |  | CNC(=O)N1CCc2cc(C3CCC(=O)N(CCOC)C3)cc(N3CCCc4cc(-c5cnn(C)c5)c(C(F)F)cc43)c2C1 (centres unmarked) [Compound M001222]
< 1000 | < 1000 |  |  | CCN1CC(c2cc3c(c(N4CCCc5cc(-c6cnn(C)c6)c(C(F)F)cc54)c2)CN(C(C)=O)C3)CCC1=O (centres unmarked) [Compound M001224]
< 1000 | > 1000 |  |  | COCCN1CC(c2cc3c(c(N4CCCc5cc(-c6cnn(C)c6)c(C(F)F)cc54)c2)CN(C(C)=O)C3)CCC1=O (centres unmarked) [Compound M001225]
> 1000 | > 1000 |  |  | CCOC(=O)N1CCc2cc(Cl)cc(N3CCCc4cc(-c5cnn(C)c5)c(C(F)F)cc43)c2C1 [Compound M001228]
> 1000 | > 1000 |  |  | CCNC(=O)N1CCc2cc(Cl)cc(N3CCCc4cc(-c5cnn(C)c5)c(C(F)F)cc43)c2C1 [Compound M001229]
< 1000 | < 1000 |  |  | CNC(=O)N1CCc2cc(C3CCC(=O)N(CC(C)(C)O)C3)cc(N3CCCc4cc(-c5cnn(C)c5)c(C(F)F)cc43)c2C1 (centres unmarked) [Compound M001230]
< 1000 | < 1000 |  |  | CC(=O)N1Cc2cc(C3CCC(=O)N(CC(C)(C)O)C3)cc(N3CCCc4cc(-c5cnn(C)c5)c(C(F)F)cc43)c2C1 (centres unmarked) [Compound M001231]
< 1000 | < 1000 |  |  | CNC(=O)N1CCc2cc([C@H]3CCC(=O)N(C)C3)cc(N3CCCc4cc(-c5cnn(C)c5)c(C(F)F)cc43)c2C1 [Compound M001234]
< 1000 | < 1000 |  |  | CNC(=O)N1CCc2cc([C@@H]3CCC(=O)N(C)C3)cc(N3CCCc4cc(-c5cnn(C)c5)c(C(F)F)cc43)c2C1 [Compound M001235]
> 1000 | > 1000 |  |  | Cn1cc(-c2cc3c(cc2C(F)F)N(c2cccc4c2NC(=O)CCC4)CCC3)cn1 [Compound M001236, 9-[7-(difluoromethyl)-6-(1-methylpyrazol-4-yl)-3,4-dihydro-2H-quinolin-1-yl]-1,3,4,5-tetrahydro-1-benzazepin-2-one]

From patent US20240109868A1, “EP300/CBP MODULATOR, PREPARATION METHOD THEREFOR AND USE THEREOF” (Miracure Biotechnology Limited, priority 2022, published 2024)
